Source: patent publication US12071404B2, “Aza (indole)-, benzothiophene-, and benzofuran-3-sulfonamides” (UCB Pharma GmbH, priority 2016, dated 2024)

Legend:
GPR17 [1] = biological target: T1, GPR17 (Homo sapiens, UniProt Q13304); assay: Calcium mobilization functional assay (GPR17 Ca2+ assay); type: cell-based; parameters: host or cells: Flp-In T-REx CHO; settings: CHO hGPR17 cells, inhibition of 50 nM MDL29,951, Calcium 5 dye, FLIPR; read-out: Ca2+ assay pIC50 (converted)
Procedure, shortened: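 Flp-In T-REx CHO cells stably expressing human GPR17, doxycycline-induced (1 μg/mL, 16-20 h), loaded 60 min with Calcium 5 dye. Inhibition by varying test-compound concentrations of the 50 nM MDL29,951 agonist response was read by fluorescence over time at room temperature. pIC50 came from 4-parameter logistic fitting.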

GPR17 [2] = biological target: T1, GPR17; assay: cAMP accumulation functional assay (HTRF, Schild analysis); type: cell-based; parameters: host or cells: Flp-In T-REx CHO; settings: CHO hGPR17 cells, Schild analysis vs MDL29,951, 5 μM forskolin, read-out: cAMP assay pA2 (converted)
Procedure: Flp-In T-REx CHO cells stably expressing human GPR17 receptor (CHO hGPR17) from Evi Kostenis' lab (Bonn University, Germany) were cultured at 37° C. in a humidified atmosphere of 5% CO2. Cells were grown in DMEM with Nutrient Mixture F-12 supplemented with hygromycin B (500 μg/mL) and blasticidin (30 μg/mL). Expression from the Flp-In locus was induced by treatment with doxycycline (1 μg/mL) for 16-20 h prior assays.
GPR17 activation can also recruit Gi-type G-protein signaling, resulting in a decrease of intracellular cyclic adenosine monophosphate (cAMP). Intracellular cAMP changes can be measured using the HTRF cAMP dynamic assay kit from CisBio (Codolet, France). Using homogenous time-resolved fluorescence technology (HTRF), the assay is based on competition between native cAMP produced by cells and cAMP labelled with the dye d2. The tracer binding was determined by an anti-cAMP antibody labeled with cryptate.
CHO hGPR17 were detached with PBS containing EDTA and dispatched in black 384-well plates with 5,000 cells per well. Cells were first incubated for 30 minutes at room temperature in HBSS Hepes (pH 7.4) containing vehicle or varying concentrations of test GPR17 antagonist/inverse agonist compounds. […] After 60 minutes incubation at room temperature, the reaction is terminated and the cells lysed by adding the d2 detection reagent and the cryptate reagent in 10 μL lysis buffer each according to manufacturer's instructions. After 60 minutes incubation, changes in cAMP concentrations are measured according to manufacturer's instructions using an Envision plate reader with laser excitation. All incubations were performed in duplicate. Data was analyzed using GraphPad Prism software using the 4-parameter logistic equation to measure MDL29,951 pEC50s in absence and presence of GPR17 antagonist/inverse agonist test compounds. Dose ratio (DR) were plotted against antagonist concentrations and Schild analysis provided estimated affinity pA2 of GPR17 antagonist/inverse agonist test compounds.
The activities of the Example compounds tested are depicted in the table below. The activity ranges A, B and C refer to pA2 values in the cAMP assay as follows: “A”: pA2<7.5, “B”: pA2 7.5<x≤8.5, “C”: pA2>8.5.

T1 sequence (Q13304 whole entry): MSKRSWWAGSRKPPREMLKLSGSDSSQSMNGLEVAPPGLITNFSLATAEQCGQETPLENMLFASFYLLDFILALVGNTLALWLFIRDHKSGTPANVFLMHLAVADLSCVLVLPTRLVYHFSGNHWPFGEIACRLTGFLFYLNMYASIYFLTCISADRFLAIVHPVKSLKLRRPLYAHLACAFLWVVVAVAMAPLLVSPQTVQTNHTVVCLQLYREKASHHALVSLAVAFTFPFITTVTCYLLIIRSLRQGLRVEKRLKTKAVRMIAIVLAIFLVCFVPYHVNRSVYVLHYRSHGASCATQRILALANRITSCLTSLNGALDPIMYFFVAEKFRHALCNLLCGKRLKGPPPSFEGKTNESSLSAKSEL

Row | SMILES | IC50 (GPR17 [1]) [nM] | Kb (GPR17 [2]) [nM]
1 | O=S(=O)(Nc1cc(F)c(F)cc1F)c1c[nH]c2c1ccc1ccccc12 [Compound I-52, N-(2,4,5-trifluorophenyl)-1H-benzo[g]indole-3-sulfonamide] | > 31.6 | 3.16 to 31.6
2 | N#Cc1cc(F)c(NS(=O)(=O)c2c[nH]c3cc(Cl)ccc23)cc1F [Compound I-185, 6-chloro-N-(4-cyano-2,5-difluorophenyl)-1H-indole-3-sulfonamide] | < 3.16 | < 3.16
3 | N#Cc1ccc(NS(=O)(=O)c2c[nH]c3cc(OCC4CC4)ccc23)c(F)c1 [Compound I-220, N-(4-cyano-2-fluorophenyl)-6-(cyclopropylmethoxy)-1H-indole-3-sulfonamide] | 3.16 to 31.6 | 3.16 to 31.6
4 | COC/C=C/c1cc(F)c(NS(=O)(=O)c2c[nH]c3cc(Cl)ccc23)nc1F [Compound I-252, 6-chloro-N-{3,6-difluoro-5-[(1E)-3-methoxyprop-1-en-1-yl]pyridin-2-yl}-1H-indole-3-sulfonamide] | < 3.16 | < 3.16
5 | N#Cc1ccc(NS(=O)(=O)c2c[nH]c3cc(-c4ccsc4)ccc23)c(F)c1 [Compound I-230, N-(4-cyano-2-fluorophenyl)-6-(thiophen-3-yl)-1H-indole-3-sulfonamide] | 3.16 to 31.6 | 3.16 to 31.6
6 | O=S(=O)(Nc1cc(Cl)ccc1F)c1c[nH]c2cc(Cl)ccc12 [Compound I-4, 6-chloro-N-(5-chloro-2-fluorophenyl)-1H-indole-3-sulfonamide] | > 31.6 | 3.16 to 31.6
7 | C#Cc1ccc(NS(=O)(=O)c2c[nH]c3nc(Br)ccc23)cc1 [Compound I-85, 6-bromo-N-(4-ethynylphenyl)-1H-pyrrolo[2,3-b]pyridine-3-sulfonamide] | 3.16 to 31.6 | 3.16 to 31.6
8 | COc1c(Cl)ccc2c(S(=O)(=O)Nc3cc(F)c(Cl)cc3F)c[nH]c12 [Compound I-244, 6-chloro-N-(4-chloro-2,5-difluorophenyl)-7-methoxy-1H-indole-3-sulfonamide] | 3.16 to 31.6 | < 3.16
9 | N#Cc1ccc(NS(=O)(=O)c2c[nH]c3cc(Br)ccc23)c(F)c1 [Compound I-114, 6-bromo-N-(4-cyano-2-fluorophenyl)-1H-indole-3-sulfonamide] | < 3.16 | < 3.16
10 | O=S(=O)(Nc1cccc2c1OCO2)c1c[nH]c2nc(Cl)ccc12 [Compound I-96, N-(1,3-benzodioxol-4-yl)-6-chloro-1H-pyrrolo[2,3-b]pyridine-3-sulfonamide] | 3.16 to 31.6 | > 31.6
11 | N#Cc1ccc(NS(=O)(=O)c2c[nH]c3nc(Br)ccc23)c(F)c1 [Compound I-177, 6-bromo-N-(4-cyano-2-fluorophenyl)-1H-pyrrolo[2,3-b]pyridine-3-sulfonamide] | < 3.16 | < 3.16
12 | N#Cc1ccc(NS(=O)(=O)c2c[nH]c3nc(Cl)ccc23)cc1 [Compound I-178, 6-chloro-N-(4-cyanophenyl)-1H-pyrrolo[2,3-b]pyridine-3-sulfonamide] | 3.16 to 31.6 | 3.16 to 31.6
13 | COc1ccc2c(S(=O)(=O)Nc3ccc(C#N)cc3F)c[nH]c2c1 [Compound I-112, N-(4-cyano-2-fluorophenyl)-6-methoxy-1H-indole-3-sulfonamide] | 3.16 to 31.6 | 3.16 to 31.6

Further lines, results first:

Row | IC50 (GPR17 [1]) [nM] | Kb (GPR17 [2]) [nM] | SMILES
14 | 3.16 to 31.6 | < 3.16 | O=S(=O)(Nc1cc(F)c(Cl)cc1F)c1c[nH]c2c(Cl)c(Br)ccc12 [Compound I-347, 6-bromo-7-chloro-N-(4-chloro-2,5-difluorophenyl)-1H-indole-3-sulfonamide]
15 | 3.16 to 31.6 | < 3.16 | O=S(=O)(Nc1ncc(C(F)(F)F)cc1F)c1c[nH]c2cc(Cl)ccc12 [Compound I-297, 6-chloro-N-[3-fluoro-5-(trifluoromethyl)pyridin-2-yl]-1H-indole-3-sulfonamide]
16 | 3.16 to 31.6 | 3.16 to 31.6 | O=S(=O)(Nc1nc(F)c(Cl)cc1F)c1c[nH]c2c1ccc1cccnc12 [Compound I-316, N-(5-chloro-3,6-difluoropyridin-2-yl)-1H-pyrrolo[3,2-h]quinoline-3-sulfonamide]
17 | 3.16 to 31.6 | < 3.16 | N#CCCc1cc(F)c(NS(=O)(=O)c2c[nH]c3c2ccc2cccnc23)cc1F [Compound I-362, N-[4-(2-cyanoethyl)-2,5-difluorophenyl]-1H-pyrrolo[3,2-h]quinoline-3-sulfonamide]
18 | 3.16 to 31.6 | 3.16 to 31.6 | N#Cc1ccc2c(S(=O)(=O)Nc3cc(F)c(OC(F)F)cc3F)c[nH]c2c1 [Compound I-282, 6-cyano-N-[4-(difluoromethoxy)-2,5-difluorophenyl]-1H-indole-3-sulfonamide]
19 | 3.16 to 31.6 | < 3.16 | C=Cc1cc(F)c(NS(=O)(=O)c2c[nH]c3cc(Cl)ccc23)nc1F [Compound I-337, 6-chloro-N-(5-ethenyl-3,6-difluoropyridin-2-yl)-1H-indole-3-sulfonamide]
20 | 3.16 to 31.6 | < 3.16 | O=S(=O)(Nc1ccc(C(F)(F)F)cc1F)c1c[nH]c2cc(Cl)ccc12 [Compound I-299, 6-chloro-N-[2-fluoro-4-(trifluoromethyl)phenyl]-1H-indole-3-sulfonamide]
21 | 3.16 to 31.6 | 3.16 to 31.6 | N#Cc1ccc(NS(=O)(=O)c2c[nH]c3cc(N=[N+]=[N-])ccc23)c(F)c1 [Compound I-335, 6-azido-N-(4-cyano-2-fluorophenyl)-1H-indole-3-sulfonamide]
22 | < 3.16 | < 3.16 | O=S(=O)(Nc1cc(F)c(OC(F)F)cc1F)c1c[nH]c2nc(Cl)ccc12 [Compound I-266, 6-chloro-N-[4-(difluoromethoxy)-2,5-difluorophenyl]-1H-pyrrolo[2,3-b]pyridine-3-sulfonamide]
23 | < 3.16 | < 3.16 | N#CCOc1cc(F)c(NS(=O)(=O)c2c[nH]c3cc(Cl)ccc23)cc1F [Compound I-257, 6-chloro-N-[4-(cyanomethoxy)-2,5-difluorophenyl]-1H-indole-3-sulfonamide]
24 | 3.16 to 31.6 | 3.16 to 31.6 | COc1nc(NS(=O)(=O)c2c[nH]c3c(F)c(Cl)ccc23)c(F)cc1F [Compound I-358, 6-chloro-N-(3,5-difluoro-6-methoxypyridin-2-yl)-7-fluoro-1H-indole-3-sulfonamide]
25 | 3.16 to 31.6 | < 3.16 | CCOC(=O)/C=C/c1cc(F)c(NS(=O)(=O)c2c[nH]c3cc(Cl)ccc23)nc1F [Compound I-330, Ethyl (2E)-3-(6-{[(6-chloro-1H-indol-3-yl)sulfonyl]amino}-2,5-difluoropyridin-3-yl)prop-2-enoate]
26 | < 3.16 | < 3.16 | N#Cc1c(Cl)ccc2c(S(=O)(=O)Nc3cc(F)c(Cl)cc3F)c[nH]c12 [Compound I-256, 6-chloro-N-(4-chloro-2,5-difluorophenyl)-7-cyano-1H-indole-3-sulfonamide]
27 | < 3.16 | < 3.16 | COc1nc(NS(=O)(=O)c2c[nH]c3cc(Cl)ccc23)c(F)cc1Cl [Compound I-254, 6-chloro-N-(5-chloro-3-fluoro-6-methoxypyridin-2-yl)-1H-indole-3-sulfonamide]
28 | 3.16 to 31.6 | 3.16 to 31.6 | COc1cc(C(F)(F)F)cnc1NS(=O)(=O)c1c[nH]c2cc(Cl)ccc12 [Compound I-344, 6-chloro-N-[3-methoxy-5-(trifluoromethyl)pyridin-2-yl]-1H-indole-3-sulfonamide]
29 | < 3.16 | < 3.16 | N#CCc1cc(F)c(NS(=O)(=O)c2c[nH]c3c2ccc2cccnc23)cc1F [Compound I-361, N-[4-(cyanomethyl)-2,5-difluorophenyl]-1H-pyrrolo[3,2-h]quinoline-3-sulfonamide]
30 | 3.16 to 31.6 | < 3.16 | C#Cc1ccc(NS(=O)(=O)c2c[nH]c3c2ccc2cccnc23)c(F)c1 [Compound I-306, N-(4-ethynyl-2-fluorophenyl)-1H-pyrrolo[3,2-h]quinoline-3-sulfonamide]
31 | < 3.16 | < 3.16 | O=S(=O)(Nc1cc(F)c(OC(F)F)cc1F)c1c[nH]c2cc(Cl)ccc12 [Compound I-267, 6-chloro-N-[4-(difluoromethoxy)-2,5-difluorophenyl]-1H-indole-3-sulfonamide]
